# Patent publication US8207154B2, “Catatonic bacteriochlorophyll derivatives” (Yeda Research and Development Co., Ltd., priority 2005, dated 2012)
# Like-named read-outs stand apart in the source and are kept apart here.
# Tested on: H5V cells
# Experiment: Phototoxicity assay (PDT efficacy at two incubation times), neutral red survival
# Format: cell-based, mouse
# Settings: for IC50: then 10 min illumination, 12 J/cm^2
# Protocol: H5V cells (40×10^3/well) were cultured in 96-well plates for 24 h to ˜80% confluence. To determine phototoxicity, the culture medium was replaced with 100 μl/well medium, in the absence or presence of 10^−8 to 10^−6 M sensitizer, and incubated in the dark for 15 min or 3 h in the culture incubator. The plates (PDT group) were then placed in the light field at room temperature and illuminated from the bottom for 10 min (800>λ>650 nm, 12 J/cm^2). After illumination, the medium was changed to fresh culture medium. The cultures were then placed in the culture incubator and cell survival was determined 24 h later, using the neutral red survival assay described below.
# Following 24 h post PDT the culture medium in the wells was replaced with 100 μl fresh medium containing 40 μg/ml neutral red. The plate was incubated for 1.5 h in a dark culture incubator. The medium was aspirated and the cells washed with 100 μl of solution containing 1% CaCl2 and 0.5% formaldehyde, which removes the unincorporated dye and fixes the cells to the substratum. The dye was then extracted from the cells into the supernatant upon addition of 100 μl 1% glacial acetic acid in 50% ethanol. After 1-2 min at room temperature, the optical density of the wells was determined in a microplate spectrophotometer using a 570 nm filter. After subtraction of assay blanks, net optical density was computed as the average value of triplicate determinations. Cell survival was calculated as the percent of the dye accumulated in the untreated control. To determine cell survival data was plotted against sensitizer concentration. These curves were then used to calculated LD50 values.
# Following synthesis, the compounds described in the Examples 23 to 75 above were purified, divided into equal aliquots and lyophilized for storage (desiccated at −20° C.). The exact material content was determined by HPLC-diode array detection, and the PDT efficacy was evaluated at two incubation times as described in the experimental section.
# [1] = 15 min incubation in the dark, read-out: IC50 15 min
# [2] = 3 h incubation in the dark, read-out: IC50 3 hours
Compound,IC50 [1],IC50 [2],PDT activity relative to compound 24 (at both incubation times)
"Palladium 3^1-oxo-15-methoxycarbonylmethyl-Rhodobacteriochlorin-13^1-(2-N^2-diethylaminoethyl)amide-17^3-(2,3-dihydroxy propyl)amide [Compound 62]",0.63 µM,0.19 µM,–
"CC[C@H]1C2=NC(=Cc3c(C(C)=O)c(C)c4[n]3[Pd][n]3c(c(C)c(C(=O)NCCNCCN)c3=C(CC(=O)OC)C3=NC(=C4)[C@@H](C)[C@@H]3CCC(=O)O)=C2)[C@@H]1C [Compound 27, Palladium 3^1-oxo-15-methoxycarbonylmethyl-Rhodobacteriochlorin-13^1-(2-[(2-aminoethyl)amino]ethyl)amide]",1.5 µM,0.45 µM,–
"CC[C@H]1C2=NC(=Cc3c(C(C)=O)c(C)c4[n]3[Pd][n]3c(c(C)c(C(=O)NCCN(CCN)CCN)c3=C(CC(=O)OC)C3=NC(=C4)[C@@H](C)[C@@H]3CCC(=O)O)=C2)[C@@H]1C [Compound 28, Palladium 3^1-oxo-15-methoxycarbonylmethyl-Rhodobacteriochlorin-13^1-([2-bis(2-aminoethyl)amino]ethyl)amide]",1.3 µM,0.38 µM,–
"CC[C@H]1C2=NC(=Cc3c(C(C)=O)c(C)c4[n]3[Pd][n]3c(c(C)c(C(=O)NCCNCCN)c3=C(CC(=O)OC)C3=NC(=C4)[C@@H](C)[C@@H]3CCC(=O)NCC(O)CO)=C2)[C@@H]1C (some centres unmarked) [Compound 55, Palladium 3^1-oxo-15-methoxycarbonylmethyl-Rhodobacteriochlorin-13^1-(2-[(2-aminoethyl)amino]ethyl)amide-17^3-(2,3-dihydroxypropyl)amide]",1.07 µM,0.43 µM,–
"CCC1C2=Cc3c(C)c(C(=O)NCCNc4ccccn4)c4[n]3[Pd][n]3c(c(C)c(C(C)=O)c3=CC(=N2)C1C)=CC1=NC(=C4CC(=O)OC)C(CCC(=O)NCCNc2ccccn2)C1C (centres unmarked) [Compound 44, Palladium 3^1-oxo-15-methoxycarbonylmethyl-Rhodobacteriochlorin-13^1,17^3-di(2-N-(2′-pyridyl)aminoethyl)amide]",1.41 µM,0.17 µM,–
"CC[C@H]1C2=NC(=Cc3c(C(C)=O)c(C)c4[n]3[Pd][n]3c(c(C)c(C(=O)NCCN5CCOCC5)c3=C(CC(=O)OC)C3=NC(=C4)[C@@H](C)[C@@H]3CCC(=O)O)=C2)[C@@H]1C [Compound 29, Palladium 3^1-oxo-15-methoxycarbonylmethyl-Rhodobacteriochlorin-13^1-(2-morpholino-N-ethyl)amide]",1.9 µM,1.9 µM,–
"CC[C@H]1C2=NC(=Cc3c(C(C)=O)c(C)c4[n]3[Pd][n]3c(c(C)c(C(=O)NCCCCN)c3=C(CC(=O)OC)C3=NC(=C4)[C@@H](C)[C@@H]3CCC(=O)NCCCCN)=C2)[C@@H]1C [Compound 35, Palladium 3^1-oxo-15-methoxycarbonylmethyl-Rhodobacteriochlorin-13^1, 17^3-di(4-aminobutyl)amide]",1.23 µM,0.21 µM,–
Palladium 3^1-oxo-15-methoxycarbonylmethyl-Rhodobacteriochlorin-13^1-(2-N^2-dimethylaminoethyl)amide-17^3-(2-(2-hydroxyethylamino)ethyl)amide [Compound 70],0.55 µM,0.16 µM,–
"CC(=O)O.CC[C@H]1C2=NC(=Cc3c(C(C)=O)c(C)c4[n]3[Pd][n]3c(c(C)c(C(=O)NCCCNC)c3=C(CC(=O)OC)C3=NC(=C4)[C@@H](C)[C@@H]3CCC(=O)NCC(O)CO)=C2)[C@@H]1C (some centres unmarked) [Compound 64, Palladium 3^1-oxo-15-methoxycarbonylmethyl-Rhodobacteriochlorin-13^1-(3-N-methylaminopropyl)amide-17^3-(2,3-dihydroxypropyl)amide]",0.56 µM,0.17 µM,–
"CC[C@H]1C2=NC(=Cc3c(C(C)=O)c(C)c4[n]3[Pd][n]3c(c(C)c(C(=O)NCCCNCCCN)c3=C(CC(=O)OC)C3=NC(=C4)[C@@H](C)[C@@H]3CCC(=O)O)=C2)[C@@H]1C [Compound 32, Palladium 3^1-oxo-15-methoxycarbonylmethyl-Rhodobacteriochlorin-13^1-(3-[(3-aminopropyl)amino]propyl)amide]",0.6 µM,0.25 µM,4-5 times
"CCC1C2=Cc3c(C)c(C(=O)NCCN)c4[n]3[Pd][n]3c(c(C)c(C(C)=O)c3=CC(=N2)C1C)=CC1=NC(=C4CC(=O)OC)C(CCC(=O)NCC(O)CO)C1C (centres unmarked) [Compound 48, Palladium 3^1-oxo-15-methoxycarbonylmethyl-Rhodobacteriochlorin-13^1-(2-aminoethyl)amide-17^3-(2,3-dihydroxypropyl) amide]",0.6 µM,0.2 µM,–
"CC(=O)O.CC[C@H]1C2=NC(=Cc3c(C(C)=O)c(C)c4[n]3[Pd][n]3c(c(C)c(C(=O)NCCCCN)c3=C(CC(=O)OC)C3=NC(=C4)[C@@H](C)[C@@H]3CCC(=O)NCC(O)CO)=C2)[C@@H]1C (some centres unmarked) [Compound 61, Palladium 3^1-oxo-15-methoxycarbonylmethyl-Rhodobacteriochlorin-13^1-(4-aminobutyl)amide-17^3-(2,3-dihydroxypropyl) amide]",0.69 µM,0.21 µM,–
"CC(=O)[O-].CC(=O)[O-].CC[C@H]1C2=NC(=Cc3c(C(C)=O)c(C)c4[n]3[Pd][n]3c(c(C)c(C(=O)NCC[N+](C)(C)C)c3=C(CC(=O)OC)C3=NC(=C4)[C@@H](C)[C@@H]3CCC(=O)NCC[N+](C)(C)C)=C2)[C@@H]1C [Compound 33, Palladium 3^1-oxo-15-methoxycarbonylmethyl-Rhodobacteriochlorin-13^1, 17^3-di(2-N^3-trimethylammoniumethyl)amide diacetate salt]",0.75 µM,0.45 µM,–
"CC[C@H]1C2=NC(=Cc3c(C(C)=O)c(C)c4[n]3[Pd][n]3c(c(C)c(C(=O)NCC(O)CO)c3=C(CC(=O)OC)C3=NC(=C4)[C@@H](C)[C@@H]3CCC(=O)NCCN)=C2)[C@@H]1C (some centres unmarked) [Compound 47, Palladium 3^1-oxo-15-methoxycarbonylmethyl-Rhodobacteriochlorin-13^1-(2,3-dihydroxypropyl)amide-17^3-(2-aminoethyl) amide]",0.45 µM,0.25 µM,–
"CC[C@H]1C2=NC(=Cc3c(C(C)=O)c(C)c4[n]3[Pd][n]3c(c(C)c(C(=O)NCCCN(C)C)c3=C(CC(=O)OC)C3=NC(=C4)[C@@H](C)[C@@H]3CCC(=O)O)=C2)[C@@H]1C [Compound 26, Palladium 3^1-oxo-15-methoxycarbonylmethyl-Rhodobacteriochlorin-13^1-(3-N^2-dimethylaminopropyl)amide]",1 µM,0.45 µM,–
"CCC1C2=Cc3c(C)c(C(=O)NCCNc4ccccn4)c4[n]3[Pd][n]3c(c(C)c(C(C)=O)c3=CC(=N2)C1C)=CC1=NC(=C4CC(=O)OC)C(CCC(=O)NCC(O)CO)C1C (centres unmarked) [Compound 57, Palladium 3^1-oxo-15-methoxycarbonylmethyl-Rhodobacteriochlorin-13^1-(2-N-(2′-pyridyl)aminoethyl)amide-17^3-(2,3-dihydroxypropyl)amide]",1.33 µM,0.6 µM,–
Palladium 3^1-oxo-15-methoxycarbonylmethyl-Rhodobacteriochlorin-13^1-(2-N-dimethylaminoethyl)amide-17^3-(2-hydroxy ethyl)amide [Compound 65],0.43 µM,0.22 µM,–
